Measurements from patent publication EP4786540A1, “POLYMER COMPOSITION AND METHOD FOR PRODUCING SAME, FORMULATION, CROSSLINKED PRODUCT, AND TIRE” (priority 2023, dated 2025).

Experiments:
[1] = pH of the acid forming the acid component (pH meter, 20°C); assay type: physicochemical; settings: organic acid 1.0 g in purified water 1.0 L, inorganic acid 0.1-mol/L aqueous solution, for a salt, pH of the acid forming it
Method: No particular limitation is imposed on the acidity of the acid forming the acid component (B), which is specifically the pH of the acid forming the acid component (B) at 20°C, is for example, 1 to 6. […] When the acid component (B) is an inorganic acid, the pH corresponds to a value measured by use of a […] aqueous solution. In the case of a metal salt of the acid, the pH corresponds to the pH of the acid forming the metal salt thereof.
The pH of a liquid prepared by mixing an acid (1.0 g) and purified water (1.0 L) was measured at 20°C by means of a pH meter (product of HORIBA, Ltd.). In the case of an organic acid salt, the pH of the acid forming the salt was measured.
The pH of a 0.1-mol/L aqueous solution of the acid employed was measured at 20°C in the same manner as employed above.

[2] = physchem
Method: The acid component (B) preferably has high solubility in a good solvent for the modified conjugated diene-based polymer (A).
An acid or a metal salt thereof (1.0 g) was added to cyclohexane (1.0 L), and the system was tightly closed. The contents were mixed at 25°C for 5 minutes. The resultant liquid mixture was allowed to stand for 10 minutes, and then the state of the liquid mixture was visually observed.

| SMILES | pH [1] | solubility at 5 min ([2]; 25 °C, organic solvent or mixture, thermodynamic from solid) | solubility in cyclohexane at 25°C ([2]; 1.0 g in 1.0 L cyclohexane, mixed 5 minutes, stood 10 minutes, visual) |
| --- | --- | --- | --- |
| O=C(O)c1ccccc1C(=O)O [b-2, phthalic acid] | 4 | ≥ 1000 µg/mL | – |
| CCCCC(CC)COP(=O)(O)OCC(CC)CCCC (centres unmarked) [b-4, bis(2-ethylhexyl) phosphate] | – | – | ≥ 1000 µg/mL |
| Cl [b-3, hydrochloric acid] | 1 | – | – |
| CCCCC(CC)C(=O)O (centres unmarked) [b-1, 2-ethylhexanonic acid] | 3 | – | – |
